Experimental data published in article PMC8592027, “Structure-Guided Design of D-Galactal Derivatives with High Affinity and Selectivity for the Galectin-8 N-Terminal Domain” (ACS Medicinal Chemistry Letters, 2021).

Legend:
galectin-2 = biological target: T1, galectin-2 (Homo sapiens, UniProt P05162); assay: Competitive fluorescence polarization assay, galectin-2; type: binding; conditions: mean ± SEM of n = 4–8
T1 sequence (P05162 1-132): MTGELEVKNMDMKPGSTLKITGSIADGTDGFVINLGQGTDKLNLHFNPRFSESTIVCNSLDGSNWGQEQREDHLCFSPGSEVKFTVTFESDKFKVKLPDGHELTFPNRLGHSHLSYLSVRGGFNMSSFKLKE

[1] = system: IL-8 secretion from MDA-MB-231 cells; assay: Multiplexed cytokine assay, IL-8 secretion; type: cell-based, human; conditions: 24 hours, vs untreated cells
Experimental: (§1) Figure 5 Effect of compounds 1 and 6a on the secretion of IL-6 and IL-8 expressed in pg/mL. The effects were measured after incubating the cells with the compounds at 10 and 100 μM. Compounds 1 and 6a reduce the secretion of IL-6 and IL-8 in a dose-dependent manner at 100 and 10 μM. Results shown are means ± SEM of three independent experiments. ns, not significant (p > 0.05); *p < 0.05 versus untreated controls.
(§2) Metabolic activity assay: […]
(§3) Briefly, the cells were treated with the selected compounds in 0.1% dimethyl sulfoxide (DMSO; vehicle), 0.1% DMSO (control vehicle), or medium (control) and seeded at a cell density of 5,500 cells/well (MDA-MB-231 cells) or 4 x 10^4 cells/well (K562 cells), 7000 cells/well (HepG2 cells) or 1 x 10^5 cells/well (human PBMCs) in duplicates (MDA-MB-231, K562, and […]) or triplicates for HepG2 cells (100 µL), in sterile 96-well plates. For the MDA-MB-231 and HepG2, the cells were left to adhere overnight before adding the compounds. The plates were then incubated for 24 hours (48 hours for HepG2), after which 15 µL of MTS reagent was added to each well. […]
(§4) HTX Multi-Mode; BioTek Instruments, Inc., VT, USA).
(§5) Multiplexed cytokine assay:
(§6) MDA-MB-231 cells were seeded in 96-well flat-bottom plates at a density of 2 x 10^4 cells/well in 100 µL of medium and allowed to adhere for 24 hours at 37 °C and 5% CO2. The medium was then replaced by a fresh medium containing the desired concentrations of compounds 1 and 6a, after which the cells were cells incubated again for 24 hours at 37 °C and 5% CO2. Cell-free supernatants were collected and stored at – 80 °C before the analysis. The cytokines secretion was assessed by BD Cytometric Bead Array Human inflammatory cytokine Kit (content: IL-1, IL-6, IL-8, IL-10, IL-12p). The flow cytometric analyses were performed on an Attune NxT flow cytometer (Thermo Fisher Scientific, Waltham, MA, USA). Standard curves were generated using recombinant cytokines provided in the kit, and the data were analyzed with FlowJo software (Tree Star, Inc., Ashland, OR). The results are expressed in pg/mL. Data are represented as means ± standard deviation (SD) from three representative independent experiments.
(§7) All experiments were performed at least twice, with average values expressed as means ± SD. All data were analyzed with the statistical software GraphPad Prism 8.0 (GraphPad Software, Inc., CA, USA). by one-way ANOVA followed with Dunnett’s multiple compar ison test. Differences were considered non-significant for p > 0.05, and significant (*) for p < 0.05.

[2] = biological target: T2, galectin-4C (C-terminal domain) (Homo sapiens, UniProt P56470); assay: Competitive fluorescence polarization assay, galectin-4C; type: binding; conditions: mean ± SEM of n = 4–8
T2 construct: galectins (N = N-terminal domain, C = C-terminal domain); made in house
T2 sequence (P56470 194-323 limits assumed): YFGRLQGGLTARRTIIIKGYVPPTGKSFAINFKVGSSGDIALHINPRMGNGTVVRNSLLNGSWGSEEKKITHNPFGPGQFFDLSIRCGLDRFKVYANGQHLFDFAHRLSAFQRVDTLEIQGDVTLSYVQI
Experimental: (§8) 1. Competitive fluorescence polarization experiments:
(§9) Human galectins -1, -3, -4N, -4C, -7, -8N, -9N, and -9C were expressed and purified as previously described 30,41. Fluorescence polarisation experiments were performed using the PHERAstar FS plat e reader (software version 2.10 R3), and the fluorescence anisotropy of fluorescein tagged probes was measured by excitation at 485 nm and emission at 520 nm. The specific conditions for galectins -1, -3, -4N, -4C, -7, -8N, -9N, and -9C were kept as report ed30,41,42. The synthesised compounds were dissolved in pure DMSO at 20 mM concentration and diluted in PBS to 3-6 different concentrations, and each concentration was tested in duplicate. The highest inhibitor concentrations tested were 1.5 mM. The

galectin-7 = biological target: T3, galectin-7 (Homo sapiens, UniProt P47929); assay: Competitive fluorescence polarization assay, galectin-7; type: binding; conditions: mean ± SEM of n = 4–8
T3 construct: made in house
T3 sequence (P47929 whole entry): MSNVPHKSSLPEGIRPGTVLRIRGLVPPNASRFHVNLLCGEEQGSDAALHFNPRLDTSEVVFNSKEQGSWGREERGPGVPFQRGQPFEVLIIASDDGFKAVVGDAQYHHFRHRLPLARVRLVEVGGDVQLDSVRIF
Experimental: as §8, §9

[3] = biological target: T4, galectin-9N (N-terminal domain) (Homo sapiens, UniProt O00182); assay: Competitive fluorescence polarization assay, galectin-9N; type: binding; conditions: mean ± SEM of n = 4–8
T4 construct: galectins (N = N-terminal domain, C = C-terminal domain); made in house
T4 sequence (O00182 17-148 limits assumed): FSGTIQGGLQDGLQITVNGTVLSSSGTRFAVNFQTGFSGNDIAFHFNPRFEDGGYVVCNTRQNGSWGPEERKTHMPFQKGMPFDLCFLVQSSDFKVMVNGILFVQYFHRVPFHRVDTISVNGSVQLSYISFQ
Experimental: as §8, §9

[4] = biological target: T5, galectin-8N (galectin-8 N-terminal domain) (Homo sapiens, UniProt O00214); assay: Competitive fluorescence polarization assay, galectin-8N; type: binding
T5 construct: selective ligand for the galectin-8 N-terminal domain (galectin-8N); made in house
T5 sequence (O00214 19-152 limits assumed): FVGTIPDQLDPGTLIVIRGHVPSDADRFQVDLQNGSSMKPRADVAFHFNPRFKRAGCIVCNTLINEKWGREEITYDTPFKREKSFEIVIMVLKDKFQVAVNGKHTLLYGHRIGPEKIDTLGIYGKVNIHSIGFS
Experimental: All synthesized D-galactal derivatives had higher binding affinities for galectin-8N than D-galactal 3.
as §8, §9

[5] = system: IL-6 secretion from MDA-MB-231 cells; assay: Multiplexed cytokine assay, IL-6 secretion; type: cell-based, human; conditions: 24 hours, vs untreated cells
Experimental: as §1, §2, §3, §4, §5, §6, §7

Kd (galectin-2): 1.4 ± 0.024 mM | Kd [2]: 1.7 ± 0.15 mM | Kd (galectin-7): > 1.5 mM | Kd [3]: 1.4 ± 0.057 mM | Kd ([4]; mean ± SEM of n = 4–8): 48 ± 4 µM | selectivity for galectin-8N over galectin-1 ([4]; ratio of Kd values): 27 fold | selectivity for galectin-8N over galectin-3 ([4]; ratio of Kd values): 15 fold
Structure (SMILES): Cn1c(CO[C@@H]2C=CO[C@H](CO)[C@@H]2O)nc2ccc(C(=O)O)cc21 [6a]
reduction in IL-8 secretion ([1]; 10 μM, effect not significant): ~20% | reduction of IL-8 secretion ([1]; 100 μM): about 55% | reduction in IL-6 secretion ([5]; 10 μM, effect not significant): about 15% | reduction of IL-6 secretion ([5]; 100 μM): about 65%
